The subject of experiment [1] is RS4;11 acute lymphoblastic leukemia (ALL) subcutaneous xenograft. The experiment can be described thus: RS4;11 ALL subcutaneous xenograft model. The experiment is classed as in vivo, NCG mice. On the procedure: The RS4;11 cells are of acute lymphoblastic leukemia (ALL) origin and were obtained from American Type Culture Collection (ATCC CRL-1873, Manassas, VA, DC, USA). Cells were grown in RPM 1640 medium (Corning, Cat #10-040-CVR), supplemented with 10% (v/v) fetal bovine serum (Gibco, Cat #10099-141C), and 100 μg/mL of penicillin and streptomycin (Gibco, Cat #15140-122). RS4;11 cells were maintained as suspension cell cultures at 37° C. in a 5% CO2 atmosphere. Five to six-week-old female NCG mice were purchased from Gempharmatech of Information Technology Center. All animals were maintained under specific pathogen free (SPF) “full barrier” condition with free access to food and water. Mice were group-housed under a 12 h light:dark cycle (lights on at 08:00 h), at a temperature of 20-26° C. and 37-62% humidity in IVC cages (Lingyunboji (Beijing) Technology Co., Ltd.). Mice were fed with complete granulated feed with Co60 radiosterilization (Beijing Ke Ao Xie Li Feed Co., Ltd.).
On the day of implantation, RS4;11 cells were harvested and re-suspended with appropriate volume of ice cold DPBS and same volume of Matrigel (Corning, Cat #356237) to give a final concentration of 5×10^7 cells/mL. Re-suspended cells were placed on ice prior to inoculation. The right front flank region of each mouse was cleaned with 75% ethanol prior to cell inoculation. Each animal was injected subcutaneously with 1×10^7 cells in 200 μL of cell suspension in the right front flank via a 26-gauge needle. After implantation, primary tumor volume was measured in two dimensions using a caliper.
Animals were randomly assigned into 10 groups with 10 mice per group according to body weight and tumor volume (100 mm^3-200 mm^3). The groups consisted of vehicle group, 5, 15, 50 mg/kg of venetoclax with QD dosing, 5, 15, 50 mg/kg of Compound 1 with QD dosing, and 2.5, 7.5, 25 mg/kg of Compound 1 with BID dosing. Treatments were administered by oral gavage (p.o.) in a volume of 10 mL/kg body weight. Body weight was assessed immediately before dosing and volume dosed was adjusted accordingly.
(§1) Individual body weight was recorded twice weekly, with mice being monitored daily for clinical signs of toxicity for the duration of the study. Mice were euthanized using carbon dioxide when their tumor volume reached 2,000 mm^3, the tumor was ulcerated, or body weight loss exceeded 20%.
(§2) Tumor volume was calculated using the formula: V=0.5×(a×b^2) where a and b are the long and short diameters of the tumor, respectively.

For experiment [2], the system named is RS4;11 Bcl-2G101V KI acute lymphoblastic leukemia (ALL) subcutaneous xenograft. Description: RS4;11 Bcl-2G101V KI ALL subcutaneous xenograft model. The experiment is classed as in vivo, NCG mice. On the procedure: The RS4;11 Bcl-2G101V KI cells are of acute lymphoblastic leukemia (ALL) origin and were screened in house. Cells were grown in RPMI 1640 medium (Corning, Cat #10-040-CVR), supplemented with 10% (v/v) fetal bovine serum (Gibco, Cat #10099-141C), and 100 μg/mL of penicillin and streptomycin (Gibco, Cat #15140-122). […] Five to six-week-old female NCG mice were supplied by GemPharmatech Co., Ltd, Jiangsu, China. All animals were maintained under specific pathogen free (SPF) “full barrier” condition with free access to food and water. Mice were group-housed under a 12 h light:dark cycle (lights on at 08:00 h), at a temperature of 20-26° C. and 37-62% humidity in WC cages (Lingyunboji (Beijing) Technology Co., Ltd.). Mice were fed with complete granulated feed with Co60 radio sterilization (Beijing Ke Ao Xie Li Feed Co., Ltd.).
Re-suspended cells were placed on ice prior to inoculation. The right front flank region of each mouse was cleaned with 75% ethanol prior to cell inoculation. Each animal was injected subcutaneously with 1×10^7 cells in 200 μL of cell suspension in the right front flank via a 26-gauge needle. After implantation, primary tumor volume was measured in two dimensions using a caliper.
Animals were randomly assigned into 7 groups with 8 mice per group according to body weight and tumor volume (around 300 mm^3). The groups consisted of vehicle group, 15, 50 and 100 mg/kg of venetoclax with QD dosing, 15, 50 and 100 mg/kg of Compound 1 with QD dosing. Treatments were administered by oral gavage (p.o.) in a volume of […]. Body weight was assessed immediately before dosing and volume dosed was adjusted accordingly.
as §1, §2

As to `CC(C)c1ccccc1[C@@H]1CCCN1C1CC2(CCN(c3ccc(C(=O)NS(=O)(=O)c4ccc(NCC5CCC(C)(O)CC5)c([N+](=O)[O-])c4)c(Oc4cnc5[nH]ccc5c4)c3)CC2)C1` (stereo partly drawn) [Compound 1, 2-((1H-pyrrolo[2,3-b]pyridin-5-yl)oxy)-N-((4-((((1r,4r)-4-hydroxy-4-methylcyclohexyl)methyl)amino)-3-nitrophenyl)sulfonyl)-4-(2-((S)-2-(2-isopropylphenyl)pyrrolidin-1-yl)-7-azaspiro[3.5]nonan-7-yl)benzamide], the “Mean Tumor volume (Day 42) (mm^3 ± SEM)” value is reported as 512.5 ± 115.9 mm^3 in experiment [1] (2.5 mg/kg BID × 42 p.o.); 820.9 ± 140.2 mm^3 in experiment [1] (5 mg/kg QD × 42 p.o.); 252.8 ± 48.3 mm^3 in experiment [1] (7.5 mg/kg BID × 42 p.o.); 312.6 ± 57.9 mm^3 in experiment [1] (15 mg/kg QD × 42 p.o.); 136.6 ± 2.2 mm^3 in experiment [1] (25 mg/kg BID × 42 p.o.); 141.8 ± 5.1 mm^3 in experiment [1] (50 mg/kg QD × 42 p.o.). In addition, in experiment [1] (oral administration at well tolerated doses), the “tumor growth inhibition (in words)” value was “potently and dose-dependently inhibited tumor growth”. Also, the “efficacy compared with venetoclax” value in experiment [1] (same total daily doses of 5 and 15 mg/kg) was “significantly better efficacy when compared with venetoclax”.

As to `CC1(C)CCC(CN2CCN(c3ccc(C(=O)NS(=O)(=O)c4ccc(NCC5CCOCC5)c([N+](=O)[O-])c4)c(Oc4cnc5[nH]ccc5c4)c3)CC2)=C(c2ccc(Cl)cc2)C1` [Venetoclax, reference compound], the entries for the “Mean Tumor volume (Day 42) (mm^3 ± SEM)” value in experiment [1] (5 mg/kg QD × 35 p.o.), in experiment [1] (15 mg/kg QD × 42 p.o.) and in experiment [1] (50 mg/kg QD × 42 p.o.) were greater than 2000 mm^3, 1070.6 ± 181.1 mm^3 and 288.4 ± 37.8 mm^3, respectively. In addition, the “Mean Tumor Volume (Day 10) (mm^3 ± SEM)” value in experiment [2] (15 mg/kg QD × 10 p.o.) is listed as 976.6 ± 64.0 mm^3; in experiment [2] (50 mg/kg QD × 10 p.o.) it was 711.8 ± 49.7 mm^3; in experiment [2] (100 mg/kg QD × 10 p.o.) it was 530.4 ± 75.4 mm^3. The “TGI (Day 10)” value in experiment [2] (15 mg/kg QD × 10 p.o.) was 44%; in experiment [2] (50 mg/kg QD × 10 p.o.), 65%; in experiment [2] (100 mg/kg QD × 10 p.o.), 80%.

(Values after patent US20240122932A1, “Methods of Treating B-Cell Malignancy Using Bcl-2 Inhibitor” (BeiGene Switzerland GmbH, priority 2021, published 2024).)
